Numbers after ± are expanded uncertainties.
How the values were obtained:
[1] = Crystal; DTA
[2] = Molar enthalpy of transition or fusion; conditions: Crystal; DSC
[3] = molar heat capacity at constant pressure; conditions: 100 kPa, Crystal, DSC

O=c1c(O)c(-c2ccccc2)oc2ccccc12 [3-hydroxyflavone]
Conditions	Molar enthalpy of transition or fusion [kcal/mol]	Normal melting temperature [°C]
[1]	–	170.5 ± 0.5
[2]	7.76 ± 0.287	–

[3]
Conditions	molar heat capacity at constant pressure [J/K/mol]
293.15 K	268.9 ± 13
298.15 K	270.1 ± 14
303.15 K	272.8 ± 14
308.15 K	275.3 ± 14
313.15 K	278.3 ± 14
318.15 K	280.8 ± 14
323.15 K	284.2 ± 14
328.15 K	287.6 ± 14
333.15 K	291.5 ± 15
338.15 K	295.2 ± 15
343.15 K	298.9 ± 15
348.15 K	303.2 ± 15
353.15 K	306.8 ± 15
358.15 K	310.8 ± 16
363.15 K	315 ± 16
368.15 K	319.4 ± 16
373.15 K	323.7 ± 16
378.15 K	328 ± 16
383.15 K	332 ± 17
388.15 K	336.9 ± 17
393.15 K	341.6 ± 17
398.15 K	346.8 ± 17
403.15 K	351.6 ± 18
408.15 K	356.3 ± 18
413.15 K	361.2 ± 18
418.15 K	366 ± 18
423.15 K	372.3 ± 19
428.15 K	379 ± 19
433.15 K	386 ± 19

O=c1cc(-c2ccccc2)oc2cccc(O)c12 [5-hydroxyflavone]
Conditions	Molar enthalpy of transition or fusion [kcal/mol]	Normal melting temperature [°C]
[1]	–	158 ± 0.5
[2]	6.49 ± 0.21	–

[3]
Conditions	molar heat capacity at constant pressure [J/K/mol]
293.15 K	274.6 ± 14
298.15 K	279.8 ± 14
303.15 K	285.1 ± 14
308.15 K	289.4 ± 14
313.15 K	297 ± 15
318.15 K	302.8 ± 15
323.15 K	307 ± 15
328.15 K	311.2 ± 16
333.15 K	312.9 ± 16
338.15 K	315.9 ± 16
343.15 K	319.5 ± 16
348.15 K	323.8 ± 16
353.15 K	328.8 ± 16
358.15 K	334.4 ± 17
363.15 K	338.5 ± 17
368.15 K	344.8 ± 17
373.15 K	347.9 ± 17
378.15 K	350.8 ± 18
383.15 K	355.6 ± 18
388.15 K	360.1 ± 18
393.15 K	365.3 ± 18
398.15 K	369.6 ± 18
403.15 K	373.8 ± 19
408.15 K	377.7 ± 19
413.15 K	382.3 ± 19
418.15 K	387.6 ± 19
423.15 K	395.5 ± 20

Nc1ccc2oc(-c3ccccc3)cc(=O)c2c1 [6-aminoflavone]
Conditions	Molar enthalpy of transition or fusion [kcal/mol]	Normal melting temperature [°C]
[1]	–	198.8 ± 0.5
[2]	7.27 ± 0.263	–

[3]
Conditions	molar heat capacity at constant pressure [J/K/mol]
293.15 K	272.6 ± 14
298.15 K	277.9 ± 14
303.15 K	283.4 ± 14
308.15 K	287.6 ± 14
313.15 K	292.2 ± 15
318.15 K	296.7 ± 15
323.15 K	301.6 ± 15
328.15 K	306.3 ± 15
333.15 K	311.1 ± 16
338.15 K	316.1 ± 16
343.15 K	320.4 ± 16
348.15 K	324.5 ± 16
353.15 K	328.9 ± 16
358.15 K	333.6 ± 17
363.15 K	338.1 ± 17
368.15 K	342.2 ± 17
373.15 K	346.1 ± 17
378.15 K	349.8 ± 18
383.15 K	353.8 ± 18
388.15 K	358.5 ± 18
393.15 K	361.8 ± 18
398.15 K	367.2 ± 18
403.15 K	371 ± 19
408.15 K	374.6 ± 19
413.15 K	378.3 ± 19
418.15 K	381.8 ± 19
423.15 K	385.4 ± 19
428.15 K	390.1 ± 20
433.15 K	395.3 ± 20
438.15 K	400.4 ± 20
443.15 K	406.4 ± 20
448.15 K	411.3 ± 21
453.15 K	418.5 ± 21
458.15 K	427.8 ± 21

O=c1cc(-c2ccccc2)oc2ccc(O)cc12 [6-hydroxyflavone]
Conditions	Molar enthalpy of transition or fusion [kcal/mol]	Normal melting temperature [°C]
[1]	–	236.2 ± 0.5
[2]	7.75 ± 0.311	–

[3]
Conditions	molar heat capacity at constant pressure [J/K/mol]
293.15 K	244.4 ± 12
298.15 K	250.3 ± 12
303.15 K	255.3 ± 13
308.15 K	260.4 ± 13
313.15 K	265.7 ± 13
318.15 K	271.1 ± 14
323.15 K	277 ± 14
328.15 K	282.6 ± 14
333.15 K	287.5 ± 14
338.15 K	292.7 ± 15
343.15 K	297.3 ± 15
348.15 K	302.4 ± 15
353.15 K	307.1 ± 15
358.15 K	312.4 ± 16
363.15 K	317.2 ± 16
368.15 K	321.9 ± 16
373.15 K	326.7 ± 16
378.15 K	330.6 ± 16
383.15 K	335.1 ± 17
388.15 K	339.8 ± 17
393.15 K	344.4 ± 17
398.15 K	348.9 ± 17
403.15 K	353.2 ± 18
408.15 K	358.3 ± 18
413.15 K	362.3 ± 18
418.15 K	365.8 ± 18
423.15 K	370.3 ± 18
428.15 K	373.7 ± 19
433.15 K	376.9 ± 19
438.15 K	380.8 ± 19
443.15 K	383.5 ± 19
448.15 K	385.7 ± 19
453.15 K	388.4 ± 19
458.15 K	391.5 ± 20
463.15 K	394.2 ± 20
468.15 K	397.1 ± 20
473.15 K	399.2 ± 20
478.15 K	402 ± 20
483.15 K	404.1 ± 20
488.15 K	406.1 ± 20
493.15 K	408.4 ± 20
498.15 K	412 ± 21

O=c1cc(-c2ccccc2)oc2cc(O)ccc12 [7-hydroxyflavone]
Conditions	Molar enthalpy of transition or fusion [kcal/mol]	Normal melting temperature [°C]
[1]	–	242.1 ± 1.2
[2]	7.46 ± 0.287	–

[3]
Conditions	molar heat capacity at constant pressure [J/K/mol]
293.15 K	248.1 ± 12
298.15 K	253.1 ± 13
303.15 K	259.1 ± 13
308.15 K	263.4 ± 13
313.15 K	268.2 ± 13
318.15 K	272 ± 14
323.15 K	276.8 ± 14
328.15 K	282.1 ± 14
333.15 K	286 ± 14
338.15 K	291.4 ± 15
343.15 K	295.3 ± 15
348.15 K	299.4 ± 15
353.15 K	303.6 ± 15
358.15 K	307.6 ± 15
363.15 K	312.3 ± 16
368.15 K	316.2 ± 16
373.15 K	320.7 ± 16
378.15 K	324.4 ± 16
383.15 K	328.2 ± 16
388.15 K	332.4 ± 17
393.15 K	336 ± 17
398.15 K	340.1 ± 17
403.15 K	343.3 ± 17
408.15 K	347 ± 17
413.15 K	351.4 ± 18
418.15 K	355.2 ± 18
423.15 K	358.2 ± 18
428.15 K	361.9 ± 18
433.15 K	366.3 ± 18
438.15 K	369.6 ± 18
443.15 K	372.3 ± 19
448.15 K	376.7 ± 19
453.15 K	379.5 ± 19
458.15 K	382.7 ± 19
463.15 K	385.8 ± 19
468.15 K	388.5 ± 19
473.15 K	390.8 ± 20
478.15 K	391.9 ± 20
483.15 K	394 ± 20
488.15 K	398.1 ± 20
493.15 K	400.9 ± 20
498.15 K	406.2 ± 20

c1ccc2cc3ccccc3cc2c1 [anthracene]
Conditions	Molar enthalpy of transition or fusion [kcal/mol]	Normal melting temperature [°C]
[1]	–	216.6 ± 0.6
[2]	7.33 ± 0.406	–

[3]
Conditions	molar heat capacity at constant pressure [J/K/mol]
293.15 K	205.7 ± 10
298.15 K	209.9 ± 10
303.15 K	213.9 ± 11
308.15 K	217.6 ± 11
313.15 K	221.7 ± 11
318.15 K	225.4 ± 11
323.15 K	229.6 ± 12
328.15 K	234.2 ± 12
333.15 K	237.9 ± 12
338.15 K	242.2 ± 12
343.15 K	246.5 ± 12
348.15 K	250.7 ± 12
353.15 K	254.9 ± 13
358.15 K	258.8 ± 13
363.15 K	262.9 ± 13
368.15 K	266.9 ± 13
373.15 K	270.6 ± 14
378.15 K	275.2 ± 14
383.15 K	279.2 ± 14
388.15 K	283.2 ± 14
393.15 K	286.9 ± 14
398.15 K	291.7 ± 15
403.15 K	295.8 ± 15
408.15 K	299.3 ± 15
413.15 K	303.3 ± 15
418.15 K	306.8 ± 15
423.15 K	309.9 ± 16
428.15 K	313.4 ± 16
433.15 K	317.4 ± 16

O=C(O)c1ccccc1 [benzoic acid]
Conditions	Molar enthalpy of transition or fusion [kcal/mol]	Normal melting temperature [°C]
[1]	–	122.2 ± 0.5
[2]	4.44 ± 0.151	–

[3]
Conditions	molar heat capacity at constant pressure [J/K/mol]
293.15 K	143.2 ± 7.2
298.15 K	145.2 ± 7.3
303.15 K	147.5 ± 7.4
308.15 K	149.6 ± 7.5
313.15 K	151.4 ± 7.6
318.15 K	153 ± 7.7
323.15 K	155.4 ± 7.8
328.15 K	157.8 ± 7.9
333.15 K	160 ± 8
338.15 K	162.2 ± 8.1
343.15 K	164.4 ± 8.2
348.15 K	166.6 ± 8.3
353.15 K	169.1 ± 8.5
358.15 K	171.7 ± 8.6
363.15 K	174.4 ± 8.7
368.15 K	176.8 ± 8.8
373.15 K	179.2 ± 9
378.15 K	182 ± 9.1
383.15 K	185.4 ± 9.3
388.15 K	190.1 ± 9.5

c1cc2ccc3cccc4ccc(c1)c2c34 [pyrene]
Conditions	Molar enthalpy of transition or fusion [kcal/mol]	Normal melting temperature [°C]
[1]	–	150.8 ± 0.8
[2]	4.15 ± 0.155	–

[3]
Conditions	molar heat capacity at constant pressure [J/K/mol]
293.15 K	221.9 ± 11
298.15 K	225.8 ± 11
303.15 K	230.2 ± 12
308.15 K	234.3 ± 12
313.15 K	238.7 ± 12
318.15 K	243 ± 12
323.15 K	247.5 ± 12
328.15 K	252.6 ± 13
333.15 K	258.1 ± 13
338.15 K	263.6 ± 13
343.15 K	268.9 ± 13
348.15 K	274.1 ± 14
353.15 K	279.8 ± 14
358.15 K	285.4 ± 14
363.15 K	291.4 ± 15
368.15 K	298.2 ± 15
373.15 K	304.6 ± 15
378.15 K	310.7 ± 16
383.15 K	317.5 ± 16
388.15 K	325.7 ± 16
393.15 K	333.7 ± 17
398.15 K	341.5 ± 17
403.15 K	349.9 ± 18
408.15 K	359.2 ± 18
413.15 K	372.2 ± 19
